According to patent publication US20260022142A1, “MACROCYCLIC IMMUNOMODULATORS” (Bristol-Myers Squibb Company, priority 2022, published 2026):
Numbered stars: 1 amine (or outer) side, 2 acyl side, 3 side chain; on linkers, the order of the positions; unused ones are H or OH. Bridge positions count the residues as written; N and C are the ends. Square brackets hold non-standard residues; d marks the D form. Peptide text beside a SMILES is read from it. * marks the point of attachment. ξ: configuration not given here. Bip = N[C@@H](Cc1ccc(-c2ccccc2)cc1)C(=O)O; Phe(3-Me) = Cc1cccc(C[C@H](N)C(=O)O)c1; X5 = CC(C)(CCN)[C@H](N[*:1])C(=O)[*:2]; Val(3-OH) = CC(C)(O)[C@H](N)C(=O)O; Val(3-F) = CC(C)(F)[C@H](N)C(=O)O; 4Pal = N[C@@H](Cc1ccncc1)C(=O)O; Cha = N[C@@H](CC1CCCCC1)C(=O)O; CH2COCH2 = O=C(C[*:1])C[*:2]; Carboxymethyl = O=C(O)C*; Orn = NCCC[C@H](N)C(=O)O; Aun = NCCCCCCCCCCC(=O)O; Dab = NCC[C@H](N)C(=O)O; Piv = CC(C)(C)C(=O)*; ξV = CC(C)C(N)C(=O)O

Target: T1, PD-1/PD-L1 interaction (PE-labeled human PD-L1-Ig binding to Jurkat cell line over-expressing human PD-1) (Homo sapiens, UniProt Q15116)
T1 construct: expressed in transfected cells; host or cells: Jurkat
Assay: Jurkat-PD-1 Cell Binding High-Content Screening Assay (CBA)
Type: cell-based
Conditions: Jurkat cell line over-expressing human PD-1; PE-labeled PD-L1-Ig 20 nM final; read-out: Jurkat hPD1-PDL1 IC50
In short: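 Human PD-L1-Ig carrying a covalent PE label on its Ig tag serves as the probe, applied at 20 nM final to compound-treated (2 h, 37° C) Jurkat-hPD-1 cells in medium with 10% fetal calf serum. After one hour, fixation and nuclear staining precede high-content image analysis.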

T1 sequence (Q15116 25-288): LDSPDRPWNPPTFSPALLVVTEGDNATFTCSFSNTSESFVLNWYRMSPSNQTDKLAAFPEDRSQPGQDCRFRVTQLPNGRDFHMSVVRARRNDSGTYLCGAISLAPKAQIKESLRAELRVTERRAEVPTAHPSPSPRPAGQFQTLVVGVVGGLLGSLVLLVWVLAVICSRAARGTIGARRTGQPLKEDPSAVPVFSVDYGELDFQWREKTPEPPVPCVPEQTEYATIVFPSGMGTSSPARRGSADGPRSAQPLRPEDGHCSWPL

| Structure (SMILES) | IC50 [nM] |
| --- | --- |
| Cc1cccc(C[C@@H]2NC(=O)[C@H](CC(=O)O)NC(=O)[C@H](Cc3ccc(OCC(=O)O)cc3)NC(=O)[C@H](CCCNC(=N)N)NC(=O)CSC[C@@H](C(=O)N[C@@H](CCN)C(=O)NCCCCCCCCCCC(=O)O)NC(=O)[C@H](CO)NC(=O)[C@H](C(C)(C)O)NC(=O)[C@H](CC3CCCCC3)NC(=O)[C@H](CCN)NC(=O)[C@@H](CC(C)C)NC(=O)[C@H](CCCN)NC(=O)[C@H](Cc3ccc(OCC(=O)O)cc3)NC(=O)[C@H](Cc3ccc(-c4ccccc4)cc3)NC(=O)[C@H](Cc3ccc(O)cc3)NC2=O)c1 [Compound 2111] ({CH2CO}-RY(Carboxymethyl)D[Phe(3-Me)]Y[Bip]Y(Carboxymethyl)[Orn][dL][Dab][Cha][Val(3-OH)]SC[Dab][Aun]-OH; thioether N-14) | 6.4 |
| Cc1cccc(C[C@@H]2NC(=O)[C@H](CC(=O)O)NC(=O)[C@H](Cc3ccc(OCC(=O)O)cc3)NC(=O)[C@H](CCNC(=O)C(C)(C)C)NC(=O)CSC[C@@H](C(=O)N[C@@H](CCN)C(=O)NCCCCCCCCCCC(=O)O)NC(=O)[C@H](CCC(N)=O)NC(=O)[C@H](C(C)C)NC(=O)[C@H](CC3CCCCC3)NC(=O)[C@H](CCN)NC(=O)[C@@H](CC(C)C)NC(=O)[C@H](CCCN)NC(=O)[C@H](Cc3ccc(OCC(=O)O)cc3)NC(=O)[C@H](Cc3ccc(-c4ccccc4)cc3)NC(=O)[C@H](Cc3ccc(O)cc3)NC2=O)c1 [Compound 2112] ({CH2CO}-[Dab](Piv)Y(Carboxymethyl)D[Phe(3-Me)]Y[Bip]Y(Carboxymethyl)[Orn][dL][Dab][Cha]VQC[Dab][Aun]-OH; thioether N-14) | 5.5 |
| Cc1cccc(C[C@@H]2NC(=O)[C@H](CC(=O)O)NC(=O)[C@H](Cc3ccc(OCC(=O)O)cc3)NC(=O)[C@H](CCCNC(=N)N)NC(=O)CSC[C@@H](C(=O)N[C@@H](CCN)C(=O)NCCCCCCCCCCC(=O)O)NC(=O)[C@H](CCC(N)=O)NC(=O)[C@H](C(C)C)NC(=O)[C@H](CC3CCCCC3)NC(=O)[C@H](CCN)NC(=O)[C@@H](CC(C)C)NC(=O)[C@H](CCCN)NC(=O)[C@H](Cc3ccc(OCC(=O)O)cc3)NC(=O)[C@H](Cc3ccc(-c4ccccc4)cc3)NC(=O)[C@H](C(C)(C)O)NC2=O)c1 [Compound 2113] ({CH2CO}-RY(Carboxymethyl)D[Phe(3-Me)][Val(3-OH)][Bip]Y(Carboxymethyl)[Orn][dL][Dab][Cha]VQC[Dab][Aun]-OH; thioether N-14) | 8.7 |
| CC(=O)COc1ccc(C[C@@H]2NC(=O)[C@H](Cc3cccc(C)c3)NC(=O)[C@H](CC(=O)O)NC(=O)[C@H](Cc3ccc(OCC(=O)O)cc3)NC(=O)[C@H](CCCNC(=N)N)NC(=O)CSC[C@@H](C(=O)N[C@@H](CCN)C(=O)NCCCCCCCCCCC(=O)O)NC(=O)[C@H]([C@@H](C)O)NC(=O)[C@H](C(C)C)NC(=O)[C@H](CC3CCCCC3)NC(=O)[C@H](CCN)NC(=O)[C@@H](CC(C)C)NC(=O)[C@H](CCCN)NC(=O)[C@H](Cc3ccncc3)NC(=O)[C@H](Cc3ccc(-c4ccccc4)cc3)NC2=O)cc1 [Compound 2114] ({CH2CO}-RY(Carboxymethyl)D[Phe(3-Me)]Y(CH2COCH2)[Bip][4Pal][Orn][dL][Dab][Cha]VTC[Dab][Aun]-OH; thioether N-14) | 10 |
| Cc1cccc(C[C@@H]2NC(=O)[C@H](CC(=O)O)NC(=O)[C@H](Cc3ccc(OCC(=O)O)cc3)NC(=O)[C@H](CCCNC(=N)N)NC(=O)CSC[C@@H](C(=O)N[C@@H](CCN)C(=O)NCCCCCCCCCCC(=O)O)NC(=O)[C@H](CO)NC(=O)[C@H](C(C)C)NC(=O)[C@H](CC3CCCCC3)NC(=O)[C@H](CCN)NC(=O)[C@@H](CC(C)C)NC(=O)[C@H](CCCN)NC(=O)[C@H](Cc3ccncc3)NC(=O)[C@H](Cc3ccc(-c4ccccc4)cc3)NC(=O)[C@H](Cc3ccc(OCC(=O)O)cc3)NC2=O)c1 [Compound 2115] ({CH2CO}-RY(Carboxymethyl)D[Phe(3-Me)]Y(Carboxymethyl)[Bip][4Pal][Orn][dL][Dab][Cha]VSC[Dab][Aun]-OH; thioether N-14) | 29.3 |
| Cc1cccc(C[C@@H]2NC(=O)[C@H](CC(=O)O)NC(=O)[C@H](Cc3ccc(OCC(=O)O)cc3)NC(=O)[C@H](CCCNC(=N)N)NC(=O)CSC[C@@H](C(=O)N[C@H](C(=O)NCCCCCCCCCCC(=O)O)C(C)(C)CCN)NC(=O)[C@H]([C@@H](C)O)NC(=O)[C@H](C(C)C)NC(=O)[C@H](CC3CCCCC3)NC(=O)[C@H](CCN)NC(=O)[C@@H](CC(C)C)NC(=O)[C@H](CCCN)NC(=O)[C@H](Cc3ccc(OCC(=O)O)cc3)NC(=O)[C@H](Cc3ccc(-c4ccccc4)cc3)NC(=O)[C@H](Cc3ccc(O)cc3)NC2=O)c1 [Compound 2116] ({CH2CO}-RY(Carboxymethyl)D[Phe(3-Me)]Y[Bip]Y(Carboxymethyl)[Orn][dL][Dab][Cha]VTC[X5][Aun]-OH; thioether N-14) | 53.5 |
| Cc1cccc(C[C@@H]2NC(=O)[C@H](CC(=O)O)NC(=O)[C@H](Cc3ccc(OCC(=O)O)cc3)NC(=O)[C@H](CCCNC(=N)N)NC(=O)CSC[C@@H](C(=O)N[C@@H](CCNC(=O)C(C)(C)C)C(=O)NCCCCCCCCCCC(=O)O)NC(=O)[C@H]([C@@H](C)O)NC(=O)[C@H](C(C)C)NC(=O)[C@H](CC3CCCCC3)NC(=O)[C@H](CCN)NC(=O)[C@@H](CC(C)C)NC(=O)[C@H](CCCN)NC(=O)[C@H](Cc3ccc(OCC(=O)O)cc3)NC(=O)[C@H](Cc3ccc(-c4ccccc4)cc3)NC(=O)[C@H](Cc3ccc(O)cc3)NC2=O)c1 [Compound 2117] ({CH2CO}-RY(Carboxymethyl)D[Phe(3-Me)]Y[Bip]Y(Carboxymethyl)[Orn][dL][Dab][Cha]VTC[Dab](Piv)[Aun]-OH; thioether N-14) | 26.3 |
| Cc1cccc(C[C@@H]2NC(=O)[C@H](CC(=O)O)NC(=O)[C@H](Cc3ccc(OCC(=O)O)cc3)NC(=O)[C@H](CCCNC(=N)N)NC(=O)CSC[C@@H](C(=O)N[C@@H](CCN)C(=O)NCCCCCCCCCCC(=O)O)NC(=O)[C@H](C(C)(C)CCN)NC(=O)C(C(C)C)NC(=O)[C@H](CC3CCCCC3)NC(=O)[C@H](CCN)NC(=O)[C@@H](CC(C)C)NC(=O)[C@H](CCCN)NC(=O)[C@H](Cc3ccc(OCC(=O)O)cc3)NC(=O)[C@H](Cc3ccc(-c4ccccc4)cc3)NC(=O)[C@H](Cc3ccc(O)cc3)NC2=O)c1 (stereo partly drawn) [Compound 2118] ({CH2CO}-RY(Carboxymethyl)D[Phe(3-Me)]Y[Bip]Y(Carboxymethyl)[Orn][dL][Dab][Cha][ξV][X5]C[Dab][Aun]-OH; thioether N-14) | 126 |
| Cc1cccc(C[C@@H]2NC(=O)[C@H](CC(=O)O)NC(=O)[C@H](Cc3ccc(OCC(=O)O)cc3)NC(=O)[C@H](CCCNC(=N)N)NC(=O)CSC[C@@H](C(=O)N[C@@H](CCN)C(=O)NCCCCCCCCCCC(=O)O)NC(=O)[C@H](CCNC(=O)C(C)(C)C)NC(=O)[C@H](C(C)C)NC(=O)[C@H](CC3CCCCC3)NC(=O)[C@H](CCN)NC(=O)[C@@H](CC(C)C)NC(=O)[C@H](CCCN)NC(=O)[C@H](Cc3ccc(OCC(=O)O)cc3)NC(=O)[C@H](Cc3ccc(-c4ccccc4)cc3)NC(=O)[C@H](Cc3ccc(O)cc3)NC2=O)c1 [Compound 2119] ({CH2CO}-RY(Carboxymethyl)D[Phe(3-Me)]Y[Bip]Y(Carboxymethyl)[Orn][dL][Dab][Cha]V[Dab](Piv)C[Dab][Aun]-OH; thioether N-14) | 10.3 |
| Cc1cccc(C[C@@H]2NC(=O)[C@H](CC(=O)O)NC(=O)[C@H](Cc3ccc(OCC(=O)O)cc3)NC(=O)[C@H](CCCNC(=N)N)NC(=O)CSC[C@@H](C(=O)N[C@@H](CCN)C(=O)NCCCCCCCCCCC(=O)O)NC(=O)[C@H](CO)NC(=O)[C@H](C(C)(C)F)NC(=O)[C@H](CC3CCCCC3)NC(=O)[C@H](CCN)NC(=O)[C@@H](CC(C)C)NC(=O)[C@H](CCCN)NC(=O)[C@H](Cc3ccc(OCC(=O)O)cc3)NC(=O)[C@H](Cc3ccc(-c4ccccc4)cc3)NC(=O)[C@H](Cc3ccc(O)cc3)NC2=O)c1 [Compound 2121] ({CH2CO}-RY(Carboxymethyl)D[Phe(3-Me)]Y[Bip]Y(Carboxymethyl)[Orn][dL][Dab][Cha][Val(3-F)]SC[Dab][Aun]-OH; thioether N-14) | 8.3 |
| Cc1cccc(C[C@@H]2NC(=O)[C@H](CC(=O)O)NC(=O)[C@H](Cc3ccc(OCC(=O)O)cc3)NC(=O)[C@H](CCCNC(=N)N)NC(=O)CSC[C@@H](C(=O)N[C@@H](CCN)C(=O)NCCCCCCCCCCC(=O)O)NC(=O)[C@H](CCC(N)=O)NC(=O)[C@H](C(C)C)NC(=O)[C@H](CC3CCCCC3)NC(=O)[C@H](CCN)NC(=O)[C@@H](CC(C)C)NC(=O)[C@H](CCCN)NC(=O)[C@H](Cc3ccc(OCC(=O)O)cc3)NC(=O)[C@H](Cc3ccc(-c4ccccc4)cc3)NC(=O)[C@H](C(C)(C)F)NC2=O)c1 [Compound 2122] ({CH2CO}-RY(Carboxymethyl)D[Phe(3-Me)][Val(3-F)][Bip]Y(Carboxymethyl)[Orn][dL][Dab][Cha]VQC[Dab][Aun]-OH; thioether N-14) | 10.9 |
| Cc1cccc(C[C@@H]2NC(=O)[C@H](CC(=O)O)NC(=O)[C@H](Cc3ccc(OCC(=O)O)cc3)NC(=O)[C@H](CCCNC(=N)N)NC(=O)CSC[C@@H](C(=O)N[C@@H](CCN)C(=O)NCCCCCCCCCCC(=O)O)NC(=O)[C@H]([C@@H](C)O)NC(=O)[C@H](C(C)C)NC(=O)[C@H](CC3CCCCC3)NC(=O)[C@H](CCN)NC(=O)[C@@H](CC(C)C)NC(=O)[C@H](CCCN)NC(=O)[C@H](Cc3ccc(OCC(=O)O)cc3)NC(=O)[C@H](Cc3ccc(-c4ccccc4)cc3)NC(=O)[C@H](C(C)(C)F)NC2=O)c1 [Compound 2123] ({CH2CO}-RY(Carboxymethyl)D[Phe(3-Me)][Val(3-F)][Bip]Y(Carboxymethyl)[Orn][dL][Dab][Cha]VTC[Dab][Aun]-OH; thioether N-14) | 14.1 |
